From publication PMC10233092, “Selective Janus kinase 1 inhibition resolves inflammation and restores hair growth offering a viable treatment option for alopecia areata” (Skin Health and Disease, 2023)
Where “and” joins values, the source holds several entries; their conditions need not be identical. Equal values may be shown once. Each block holds one compound with its values, some of them ahead of it.

Experiments:
JAK1 = JAK1 (Homo sapiens, UniProt P23458); experiment: JAK1 kinase inhibition, Calliper assay; assay type: biochemical; settings: physiological ATP concentration of 5 mM
JAK3 = target: T1, JAK3 (Homo sapiens, UniProt P52333); experiment: JAK3 kinase inhibition, Calliper assay; assay type: biochemical; settings: physiological ATP concentration of 5 mM
T1 sequence (P52333 1-1124): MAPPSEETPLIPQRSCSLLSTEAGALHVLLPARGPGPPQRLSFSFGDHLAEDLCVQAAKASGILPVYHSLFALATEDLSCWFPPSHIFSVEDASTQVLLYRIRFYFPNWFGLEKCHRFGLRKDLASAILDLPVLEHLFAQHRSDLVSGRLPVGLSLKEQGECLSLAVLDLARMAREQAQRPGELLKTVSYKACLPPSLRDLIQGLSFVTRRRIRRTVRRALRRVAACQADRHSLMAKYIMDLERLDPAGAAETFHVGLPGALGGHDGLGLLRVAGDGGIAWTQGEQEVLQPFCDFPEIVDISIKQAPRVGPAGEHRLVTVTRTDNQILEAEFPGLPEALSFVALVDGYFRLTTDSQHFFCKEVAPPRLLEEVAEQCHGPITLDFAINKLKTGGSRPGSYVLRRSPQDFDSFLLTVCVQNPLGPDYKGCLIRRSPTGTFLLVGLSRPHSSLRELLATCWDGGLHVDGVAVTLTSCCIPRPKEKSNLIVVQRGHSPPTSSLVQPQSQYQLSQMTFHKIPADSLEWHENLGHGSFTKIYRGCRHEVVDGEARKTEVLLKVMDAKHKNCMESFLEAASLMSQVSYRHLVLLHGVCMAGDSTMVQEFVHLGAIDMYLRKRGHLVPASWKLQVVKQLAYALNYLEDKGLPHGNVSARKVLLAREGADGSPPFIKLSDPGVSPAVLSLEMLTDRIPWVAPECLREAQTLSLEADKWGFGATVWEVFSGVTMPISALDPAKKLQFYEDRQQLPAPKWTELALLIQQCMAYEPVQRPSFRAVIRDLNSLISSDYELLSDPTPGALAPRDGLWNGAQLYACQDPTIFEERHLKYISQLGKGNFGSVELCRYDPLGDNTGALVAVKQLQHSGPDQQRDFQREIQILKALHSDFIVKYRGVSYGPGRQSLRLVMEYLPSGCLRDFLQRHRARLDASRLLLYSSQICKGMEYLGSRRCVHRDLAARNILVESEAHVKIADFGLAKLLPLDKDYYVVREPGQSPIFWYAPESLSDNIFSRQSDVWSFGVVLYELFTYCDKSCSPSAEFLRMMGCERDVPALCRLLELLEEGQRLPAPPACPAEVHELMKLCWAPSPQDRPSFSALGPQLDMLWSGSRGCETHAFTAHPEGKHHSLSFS

Basic pKa = assay type: physicochemical; settings: read-out: Basic pKa's
From the text: TABLE 2 In vitro and in vivo DMPK properties of Cmpd A, B & C | column: In vitro mouse & physical chemical properties / Basic pKa's

[1] = Plasma protein binding by equilibrium dialysis; assay type: in vitro ADME; settings: mouse plasma
From the text: Detailed description in Supplementary materials.

[2] = Caco permeability and efflux; assay type: in vitro ADME; settings: human, Caco-2; for Papp A→B: read-out: Caco AtB
From the text: TABLE 2 In vitro and in vivo DMPK properties of Cmpd A, B & C | column: In vitro mouse & physical chemical properties / Caco AtB 10^−6 cm/s/Efflux ratio ^b

[3] = test system: C3H/HeJ mouse model of AA; experiment: Hair growth (Hair Index Score) in C3H/HeJ graft-induced AA mice; assay type: in vivo; settings: for hair growth, result in words: AA mice; for Hair index score (% area x score, 0 to 3): individual mice and mean±SD
Method: Female C3H/HeJ graft‐induced mice were used as a preclinical model of Alopecia Areata (AA) according to previous publications.[45], [46], [47] Healthy C3H/HeJ and mice with fully developed AA (16–24 weeks after induction of disease) were monitored by means of body weight and hair index score on a weekly basis for 12 weeks, with free access to food and water (Healthy and AA groups, respectively).
Hair growth was evaluated using a scoring index (Hair Index Score, HIS). A score from 0 to 3 (0 = no fur, 1 = stubble, short broken hairs, 2 = sparse, intermediate length hairs, 3 = normal length and density hairs) was taken times the surface area of the mouse with each respective score (dorsal area = 50%, ventral area = 50%).
12 mice were given once daily servings of Cmpd A for free eating at approximately 100 mg/kg (compound dissolved in 10 ml tap water and mixed with 5 g grounded R70 standard rodent chow from Lantmännen, Sweden) for 4 weeks. Typically, these servings were finished within 2 h. Six mice were terminated at the end of the treatment period, blood and skin taken for determination of drug concentration and skin sampled for histopathological evaluation (see below, these mice are representing the systemic JAK1 inhibition group in histopathological evaluations). Skin biopsies for mRNA expression and blood was sampled from the other 6 mice where after these mice were followed off treatment for an additional 8 weeks when terminal samples were taken (8w off Tx group).
Another set of 6 mice were treated topically on the right side of their back with Cmpd B (0.1% cream formulation, Eucerin Aquaporin rich) for 12 weeks (local JAK1 inhibition group). Initially, twice weekly for 2 weeks followed by once weekly due to high tissue retention. Plasma exposure was evaluated during the course of the study as well as at termination when also skin was sampled for exposure, histopathological evaluation and mRNA expression.
The aim of the study was to achieve similar skin exposures by both routes of administration but only systemic exposure after oral administration. […] Blood, skin, lymph nodes and spleens were collected at termination for evaluation of exposure, mRNA expression, histopathology (RNAScope) and cell differentials (flow cytometry). Untreated healthy and alopecic mice served as controls (n = 6).

[4] = topical application (local exposure)

Chain of JAK1 (P23458 whole entry, species assumed): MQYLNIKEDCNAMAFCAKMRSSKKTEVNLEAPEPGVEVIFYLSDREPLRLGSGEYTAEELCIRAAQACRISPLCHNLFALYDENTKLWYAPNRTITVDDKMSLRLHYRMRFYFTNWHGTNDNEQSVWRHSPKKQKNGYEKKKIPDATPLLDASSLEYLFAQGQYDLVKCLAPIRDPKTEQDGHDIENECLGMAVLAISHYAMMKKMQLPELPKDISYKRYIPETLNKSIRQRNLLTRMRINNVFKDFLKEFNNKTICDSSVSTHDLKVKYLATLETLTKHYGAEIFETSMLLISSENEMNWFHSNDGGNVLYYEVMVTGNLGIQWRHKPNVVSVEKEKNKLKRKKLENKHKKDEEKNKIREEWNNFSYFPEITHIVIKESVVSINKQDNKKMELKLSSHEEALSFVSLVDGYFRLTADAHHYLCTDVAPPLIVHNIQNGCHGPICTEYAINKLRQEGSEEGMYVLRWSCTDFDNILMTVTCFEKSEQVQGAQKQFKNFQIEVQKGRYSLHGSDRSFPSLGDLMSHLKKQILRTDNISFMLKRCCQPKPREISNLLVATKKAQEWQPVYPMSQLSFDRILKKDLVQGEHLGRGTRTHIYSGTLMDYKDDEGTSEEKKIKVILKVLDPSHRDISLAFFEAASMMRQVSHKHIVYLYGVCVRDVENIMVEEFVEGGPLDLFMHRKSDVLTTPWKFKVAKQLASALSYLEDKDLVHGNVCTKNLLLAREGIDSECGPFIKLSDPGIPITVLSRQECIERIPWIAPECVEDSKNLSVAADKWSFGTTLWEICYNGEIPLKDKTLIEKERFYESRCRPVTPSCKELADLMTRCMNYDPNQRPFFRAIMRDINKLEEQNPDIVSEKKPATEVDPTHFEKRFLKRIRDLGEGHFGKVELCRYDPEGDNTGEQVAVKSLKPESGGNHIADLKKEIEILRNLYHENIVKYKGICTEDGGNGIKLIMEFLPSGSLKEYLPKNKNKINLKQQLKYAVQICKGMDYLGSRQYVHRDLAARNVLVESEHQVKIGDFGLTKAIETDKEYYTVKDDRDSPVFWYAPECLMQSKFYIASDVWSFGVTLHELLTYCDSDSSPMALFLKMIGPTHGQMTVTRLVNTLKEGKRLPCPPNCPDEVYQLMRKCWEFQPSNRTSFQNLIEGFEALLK

IC50 (JAK1): 9.3 nM
IC50 (JAK3): > 30 µM
pKa (Basic pKa): 8.6
f u, plasma [1]: 0.74
efflux ratio ([2]; Efflux ratio = BtA/AtB): 14
Papp A→B [2]: 0.3 ×10⁻⁶ cm/s
Compound: Cc1cnc(Nc2cc(N3C[C@@H]4C[C@H]3CN4C)cnc2F)nc1N[C@H](C)[C@H](C)CO [Cmpd B, (2S,3R)-3-{[2-({2-fluoro-5-[(1S,4S)-5-methyl-2,5-diazabicyclo[2.2.1]heptan-2-yl]pyridin-3-yl}amino)-5-methylpyrimidin-4-yl]amino}-2-methylbutan-1-ol]
hair growth, result in words [3, 4]: did not restore hair growth
Hair index score (% area x score, 0 to 3) ([3]; Local JAK1i (0.1% cream topical), treated side, w0, n=6): 50 and 0
Hair index score (% area x score, 0 to 3) ([3]; Local JAK1i (0.1% cream topical), treated side, w0, n=6, mean): 17±26
Hair index score (% area x score, 0 to 3) ([3]; Local JAK1i (0.1% cream topical), untreated side, w0, n=6): 30 and 0 and 10
Hair index score (% area x score, 0 to 3) ([3]; Local JAK1i (0.1% cream topical), untreated side, w0, n=6, mean): 7±12
Hair index score (% area x score, 0 to 3) ([3]; Local JAK1i, treated side, w1): 50 and 0 and 100
Hair index score (% area x score, 0 to 3) ([3]; Local JAK1i, treated side, w1, mean): 25±42
Hair index score (% area x score, 0 to 3) ([3]; Local JAK1i, treated side, w4): 80 and 0 and 10 and 20
Hair index score (% area x score, 0 to 3) ([3]; Local JAK1i, treated side, w4, mean): 18±31
Hair index score (% area x score, 0 to 3) ([3]; Local JAK1i, treated side, w6): 200 and 0 and 50 and 30
Hair index score (% area x score, 0 to 3) ([3]; Local JAK1i, treated side, w6, mean): 47±78
Hair index score (% area x score, 0 to 3) ([3]; Local JAK1i, treated side, w7): 200 and 80 and 0 and 100
Hair index score (% area x score, 0 to 3) ([3]; Local JAK1i, treated side, w7, mean): 80±75
Hair index score (% area x score, 0 to 3) ([3]; Local JAK1i, treated side, w8): 200 and 0 and 50 and 100
Hair index score (% area x score, 0 to 3) ([3]; Local JAK1i, treated side, w8, mean): 58±80
Hair index score (% area x score, 0 to 3) ([3]; Local JAK1i, treated side, w9): 240 and 0 and 25 and 70 and 90
Hair index score (% area x score, 0 to 3) ([3]; Local JAK1i, treated side, w9, mean): 71±91
Hair index score (% area x score, 0 to 3) ([3]; Local JAK1i, treated side, w11): 240 and 0 and 100 and 80
Hair index score (% area x score, 0 to 3) ([3]; Local JAK1i, treated side, w11, mean): 70±94
Hair index score (% area x score, 0 to 3) ([3]; Local JAK1i, untreated side, w1): 40 and 0 and 100
Hair index score (% area x score, 0 to 3) ([3]; Local JAK1i, untreated side, w1, mean): 23±41
Hair index score (% area x score, 0 to 3) ([3]; Local JAK1i, untreated side, w4): 70 and 0 and 10 and 30
Hair index score (% area x score, 0 to 3) ([3]; Local JAK1i, untreated side, w4, mean): 18±28
Hair index score (% area x score, 0 to 3) ([3]; Local JAK1i, untreated side, w6): 170 and 0 and 10 and 20
Hair index score (% area x score, 0 to 3) ([3]; Local JAK1i, untreated side, w6, mean): 33±67
Hair index score (% area x score, 0 to 3) ([3]; Local JAK1i, untreated side, w7): 170 and 0
Hair index score (% area x score, 0 to 3) ([3]; Local JAK1i, untreated side, w7, mean): 28±69
Hair index score (% area x score, 0 to 3) ([3]; Local JAK1i, untreated side, w8): 170 and 0 and 10
Hair index score (% area x score, 0 to 3) ([3]; Local JAK1i, untreated side, w8, mean): 30±69
Hair index score (% area x score, 0 to 3) ([3]; Local JAK1i, untreated side, w9): 200 and 0 and 25
Hair index score (% area x score, 0 to 3) ([3]; Local JAK1i, untreated side, w9, mean): 37±80
Hair index score (% area x score, 0 to 3) ([3]; Local JAK1i, untreated side, w11): 200 and 0 and 30 and 50
Hair index score (% area x score, 0 to 3) ([3]; Local JAK1i, untreated side, w11, mean): 47±78

IC50 (JAK1): < 3 nM
IC50 (JAK3): > 30 µM
pKa (Basic pKa): 7.9
f u, plasma [1]: 0.11
Papp A→B [2]: 6.7 ×10⁻⁶ cm/s
Compound: COCC(C(=O)Nc1cccc2c(-c3nc(Nc4cccc(S(C)(=O)=O)c4F)ncc3F)c[nH]c12)N1CCN(C)CC1 (stereo not shown) [Cmpd C]
hair growth, result in words ([3]; oral daily servings (systemic exposure)): induced hair growth
hair growth, result in words [3, 4]: did not
